From patent US8470822B2, “Folate mimetics and folate-receptor binding conjugates thereof” (Purdue Research Foundation, priority 2001, dated 2013) come the findings set out here.

In series [1] the test system is folate-receptor-positive human KB cell tumor xenografts. The series is described as follows: Biodistribution of 111In radiotracer in KB tumor-bearing athymic mice after intravenous administration. The format is in vivo. As for the experimental part: Our primary animal model for evaluation of the biodistribution and pharmacokinetics of folate-receptor-targeted radiopharmaceuticals has been athymic mice bearing subcutaneously implanted folate-receptor-positive human KB cell tumors. […] After 3 weeks on folate-free diet, mouse serum folate levels drop to 25±7 nM from the initial 720±260 nM serum folate level when the animals are fed normal rodent chow. This dietary intervention is believed to be a reasonable manipulation of the animal model, since the mice would have serum folate levels only slightly higher than the folate concentration of normal human serum. Thus, in these mouse biodistribution studies the radiotracer is competing for tumor folate receptors with physiologically relevant concentrations of endogenous unlabeled serum folate.
The substantial retention of ^111In in the kidneys is fully consistent with the binding of ^111In-CYK4-013 to tissue folate receptors, since the renal proximal tubule is a known normal tissue site of folate receptor expression. […] The behavior of the ^111In-CYK4-013 radiopharmaceutical in this animal model (Table 2) is very similar to that observed for ^111In-DTPA-Folate (Table 3).
Results. Similar to ^111In-DTPA-Folate, ^111In-CYK4-013 selectively localized in the folate-receptor-positive tumor xenografts, and afforded prolonged tumor retention of ^111In (5.4±0.8; 5.5±1.1; and 3.6±0.6% ID/g at 1 hour, 4 hours, and 24 hours, respectively) (Table 2). […] Blockable binding was also observed in the kidneys, where the folate receptor occurs in the proximal tubules.

Series [2] addresses T1, folate receptor on KB cells (Homo sapiens, UniProt P15328).
T1 construct: host or cells: KB cells (intact, trypsinized, suspended)
As to the kind of experiment: Relative binding affinity: competition with 3H-folic acid for binding to KB cells. To be noted: 100 nM 3H-folic acid, 15 minutes on ice; for relative binding activity compared to folic acid: folic acid set to 1; for EC50: read-out: EC50 (displacement of 3H-folic acid bound to folate receptor). As to the method:
Relative binding affinity. […] The relative affinity of various folate derivatives was determined according to the method described by Westerhoff et al. (Mol. Pharm., 1995, 48:459-471) with slight modification. Briefly, folate receptor-positive KB cells were gently trypsinized in 0.25% trypsin in phosphate-buffered saline (PBS) at room temperature for 3 minutes and then diluted in folate-free RPMI 1640 media (FFRPMI) (Gibco) supplemented with 10% heat-inactivated fetal calf serum. Following a 5 minute 800×g spin and one PBS wash, the final cell pellet was suspended in FFRPMI (no serum). […] Samples were centrifuged at 10,000×g for 5 minutes, cell pellets were suspended in buffer, transferred to individual vials containing 5 mL of scintillation cocktail, and then counted for radioactivity.
Binding activity. The binding activity of pteroyl hydrazide and pteroylhydrazido-BTCA-DAS was determined using the assay described in Example IV.

The mark [3] stands for this setting: 4 Hours Post Injection BLOCKED, Folic Acid Dose 495 ± 79 μg/kg, n = 4.

Molecules are shown by their SMILES.

T1 sequence (P15328 25-234): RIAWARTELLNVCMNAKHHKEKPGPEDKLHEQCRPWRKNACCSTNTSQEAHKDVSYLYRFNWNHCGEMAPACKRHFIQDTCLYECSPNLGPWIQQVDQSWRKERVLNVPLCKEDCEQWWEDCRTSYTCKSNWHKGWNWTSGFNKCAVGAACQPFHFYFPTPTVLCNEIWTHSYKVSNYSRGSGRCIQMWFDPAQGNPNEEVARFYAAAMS

For `Nc1nc2ncc(CNc3ccc(C(=O)N[C@@H](CCC(=O)NCCNC(=O)CN(CCN(CCN(CC(=O)[O-])CC(=O)[O-])CC(=O)[O-])CC(=O)[O-])C(=O)O)cc3)nc2c(=O)[nH]1.[111In]` [^111In-DTPA-Folate, reference compound], in series [1] (1 Hour Post Injection, n = 4), the “Percentage of Injected 111In Dose Per Gram: Blood” value was found to be 0.14 ± 0.03 % ID/g, the “Percentage of Injected 111In Dose Per Gram: Heart” value was 2.3 ± 0.4 % ID/g, the “Percentage of Injected 111In Dose Per Gram: Kidney” value is on record as 90 ± 9 % ID/g and the “Percentage of Injected 111In Dose Per Gram: Liver & Gall Bladder” value is 4.0 ± 1.5 % ID/g. Also, in series [1] (1 Hour Post Injection, n = 4), the “Percentage of Injected 111In Dose Per Gram: Lungs” value stood at 1.3 ± 0.1 % ID/g; the “Percentage of Injected 111In Dose Per Gram: Muscle” value amounted to 3.5 ± 0.8 % ID/g; the “Percentage of Injected 111In Dose Per Gram: Spleen” value was 0.36 ± 0.03 % ID/g; the “Percentage of Injected 111In Dose Per Gram: Stomach, Intestines & Contents” value is 1.0 ± 0.2 % ID/g. Besides, in series [1] (1 Hour Post Injection, n = 4), the “Percentage of Injected 111In Dose Per Gram: Tumor” value is reported as 5.3 ± 0.4 % ID/g, the Tumor/blood ratio turned out to be 38 ± 7, the Tumor/kidney ratio is given as 0.060 ± 0.011 and the Tumor/liver ratio is given as 1.5 ± 0.5. Further, in series [1] (1 Hour Post Injection, n = 4), the Tumor/muscle ratio was determined as 1.6 ± 0.3. The Tumor/kidney ratio in series [1] (4 Hours Post Injection BLOCKED, Folic Acid Dose 495 ± 79 μg/kg) turned out to be 0.050 ± 0.023. Also, the “Percentage of Injected 111In Dose Per Gram: Kidney” value in series [1] (4 Hours Post Injection BLOCKED, Folic Acid Dose 495 ± 79 μg/kg, n = 3, anomalous animal excluded) is reported as 2.3 ± 1.0 % ID/g. Also, in series [1] (setting [3]), the “Percentage of Injected 111In Dose Per Gram: Blood” value is given as 0.029 ± 0.011 % ID/g, the “Percentage of Injected 111In Dose Per Gram: Heart” value was 0.022 ± 0.010 % ID/g, the “Percentage of Injected 111In Dose Per Gram: Liver & Gall Bladder” value was found to be 0.12 ± 0.03 % ID/g and the “Percentage of Injected 111In Dose Per Gram: Lungs” value stood at 0.065 ± 0.021 % ID/g. For the same molecule, in series [1] (setting [3]), the “Percentage of Injected 111In Dose Per Gram: Muscle” value is on record as 0.023 ± 0.013 % ID/g; the “Percentage of Injected 111In Dose Per Gram: Spleen” value is reported as 0.060 ± 0.021 % ID/g; the “Percentage of Injected 111In Dose Per Gram: Stomach, Intestines & Contents” value turned out to be 0.49 ± 0.20 % ID/g; the “Percentage of Injected 111In Dose Per Gram: Tumor” value came out at 0.16 ± 0.07 % ID/g. For the same molecule, in series [1] (setting [3]), the Tumor/blood ratio is listed as 5.5 ± 0.8, the Tumor/liver ratio was 1.4 ± 0.4 and the Tumor/muscle ratio is reported as 8.4 ± 3.8. Moreover, in series [1] (4 Hours Post Injection, n = 4), the “Percentage of Injected 111In Dose Per Gram: Blood” value worked out at 0.064 ± 0.007 % ID/g, the “Percentage of Injected 111In Dose Per Gram: Heart” value was 2.0 ± 0.3 % ID/g, the “Percentage of Injected 111In Dose Per Gram: Kidney” value is on record as 85 ± 12 % ID/g and the “Percentage of Injected 111In Dose Per Gram: Liver & Gall Bladder” value turned out to be 2.2 ± 0.4 % ID/g. In series [1] (4 Hours Post Injection, n = 4), the “Percentage of Injected 111In Dose Per Gram: Lungs” value came to 1.1 ± 0.3 % ID/g; the “Percentage of Injected 111In Dose Per Gram: Muscle” value was found to be 2.9 ± 0.7 % ID/g; the “Percentage of Injected 111In Dose Per Gram: Spleen” value is listed as 0.35 ± 0.11 % ID/g; the “Percentage of Injected 111In Dose Per Gram: Stomach, Intestines & Contents” value came out at 1.0 ± 0.2 % ID/g. Moreover, in series [1] (4 Hours Post Injection, n = 4), the “Percentage of Injected 111In Dose Per Gram: Tumor” value worked out at 6.8 ± 1.2 % ID/g, the Tumor/blood ratio came to 106 ± 15, the Tumor/kidney ratio stood at 0.080 ± 0.012 and the Tumor/liver ratio was 3.3 ± 1.1. In addition, the Tumor/muscle ratio in series [1] (4 Hours Post Injection, n = 4) worked out at 2.5 ± 0.9.

With `Nc1nc2ncc(CNc3ccc(C(=O)NC(C(=O)O)c4ccccn4)cc3)nc2c(=O)[nH]1` (stereo not drawn) [Pte-AP, N-pteroyl-2-amino-2-carboxymethylpyridine], in series [2], the “relative binding activity compared to folic acid” value (shortened to “relative binding activity”) came out at 0.48 and the EC50 was 193 nM.

In the case of `Nc1nc(O)c2nc(CNc3ccc(C(=O)O[C@H](C(=O)O)c4ccccc4)cc3)cnc2n1` [ACBP, (S)-α-carboxybenzoyl pteroate], in series [2], the “relative binding activity” value is listed as 0.46 and the EC50 came out at 204 nM.

For the molecule `NNC(=O)c1ccc(NCc2cnc3nc(N)nc(O)c3n2)cc1` [Pteroyl hydrazide, pteroyl hydrazide], in series [2], the “relative binding activity” value is 0.74 and the EC50 was 94 nM.
